In ChEMBL document CHEMBL3507680, “University of Dundee, Gates Library screen for HepG2 cell viability” one finds cytotoxicity data, which are given here for 91 compounds.

Structures are written as SMILES.

This series in a line: Human HepG2 cell viability assay in 384 well format. Particulars: HepG2 cells, read-out: Inhibition. The arrangement: dose 125 nL, time 70.5 hour; cytotoxicity at 70.5 h: concentration not given beside the values. In kind it is toxicity, cell-based.

With `COCC(=O)N1CC[C@H]2[C@H]1CCN2CC(C)C`, the cytotoxicity at 70.5 h was -12.6%.
Next, `CNC(=O)[C@@H]1COC[C@H]2CN(C(=O)c3ccc(C)c(C)c3)C[C@H]21`: -7.79%; `Cc1cc(C)cc(CN2C[C@@H]3OCCN(S(=O)(=O)N(C)C)[C@@H]3C2)c1`: -5.73%; `CCc1ccc(C(=O)N2C[C@@H]3COC[C@@H](C(=O)NC)[C@@H]3C2)cc1`: -0.591%.
The same measure for `CCOCc1cncc2c1CCN(C(=O)c1cccc(C#N)c1)C2`: -1.85%; for `COc1cccc(CN2C[C@H]3CCNCC[C@H]3S2(=O)=O)c1`: 18.8%.
With `CC(C)NC(=O)N1CCN(C(=O)C2CCOCC2)CC2(CNC(=O)C2)C1` (stereo unspecified), the cytotoxicity at 70.5 h is -16%.
Next, `c1ccc(CO[C@H]2CO[C@@]3(CCCN(Cc4ccncc4)C3)C2)nc1`: -16.2%.
In the case of `O=c1cc(Cn2ccnc2)nc2n1CCCN(Cc1cccs1)C2`, the cytotoxicity at 70.5 h is -16.6%.
Consider `O=C(c1ccc[nH]1)N1CCOCC2(CCN(C3CCOCC3)C2)C1` (stereo unspecified), for which the cytotoxicity at 70.5 h was -19%.
Next, `N#Cc1cccc(N2CCCC3(C2)CN(c2nncs2)CCO3)c1` (stereo unspecified): 14%; `CS(=O)(=O)NC[C@]12COC[C@H]1CN(C(=O)c1ncccn1)C2`: 17.4%; `Cc1ccc(S(=O)(=O)N2Cc3c(CN(C)C)nn(C)c3C2)cc1`: 3.97%.
Regarding `CN(C)Cc1nn(C)c2c1CN(S(=O)(=O)c1ccccc1F)C2`, the cytotoxicity at 70.5 h was -0.163%.
As for `O=C1CCCN1CC1CN(C(=O)C2CCOCC2)Cc2nccn2C1` (stereo unspecified), the cytotoxicity at 70.5 h was -1.66%.
Next, `Cn1cc(C[C@H]2[C@H](O)CCN2C(=O)C2CCCC2)cn1`: -2.64%.
Regarding `CN(Cc1cn2c(n1)CN(C(=O)C1CCOCC1)CC2)Cc1ccco1`, the cytotoxicity at 70.5 h is -1.65%.
Next, `CS(=O)(=O)N1Cc2nccn2CC(CN2CCCC2=O)C1` (stereo unspecified): 1.5%; `Cc1ccoc1C(=O)N1CC(C(=O)NCC2CC2)C2(CCOCC2)C1` (stereo unspecified): 1.52%; `Cc1cccc(S(=O)(=O)N2Cc3c(CN(C)C)nn(C)c3C2)c1`: 2.96%.
The same measure for `Cc1ccsc1C(=O)N1CCn2cnc(COCC3CC3)c2C1`: -4.7%; for `Cc1ncsc1CN1CC[C@H]2OCC[C@@]2(C(=O)N(C)C)C1`: -3.45%.
The same measure for `Cn1cc(C[C@H]2[C@H](O)CCN2C(=O)C2CCOCC2)cn1`: -7.24%.
On to `Cc1ncsc1CN1CC[C@H]2OCC[C@@]2(C(=O)NCC2CC2)C1`, for which the cytotoxicity at 70.5 h was -3.48%.
Next, `O=C1COC2(CCN(Cc3ccncc3)CC2)CN1CC1CC1`: 4.04%.
Next, `CCn1cc2c(n1)C(COC)CN(C(=O)COc1ccccc1)C2` (stereo unspecified): 6.15%.
With `COc1ccccc1OCC(=O)N1CCC[C@]2(C[C@@H](OC)CO2)C1`, the cytotoxicity at 70.5 h came out at 10.6%.
Turning to `Cc1csc([C@@H]2C[C@@H]3CCN(C(=O)c4cnccn4)C[C@H]3O2)n1`, the cytotoxicity at 70.5 h was -4.76%.
As for `Cn1ccnc1CN1CCC2(CC1)CC(Nc1ccccn1)CO2` (stereo unspecified), the cytotoxicity at 70.5 h is -2.46%.
The same measure for `CCC1=N[C@@]2(CC[C@@H]3CN(S(=O)(=O)CC(C)C)C[C@@H]32)C(=O)N1CC`: 1.37%; for `Cc1ccsc1C(=O)N1CC(C(=O)NC(C)C)C2(CCOCC2)C1` (stereo unspecified): 1.65%; for `O=C1CCC2(CCCN(c3ncc(F)cn3)CC2)N1Cc1ccccc1` (stereo unspecified): 1.63%.
The same measure for `O=C(c1c[nH]cn1)N1CCCn2c(nnc2Cn2cccc2)C1`: -1.3%; for `Cc1ccccc1OCC(=O)N1CC[C@]2(C[C@@H](OCC3CC3)CO2)C1`: -1.4%; for `CN(C)S(=O)(=O)N1C[C@@H](OCc2ccccn2)[C@H]2OCCC[C@H]21`: -3.83%.
The same measure for `Cn1ncc2c1C(COCC1CC1)CN(Cc1cccnc1)C2` (stereo unspecified): -4.66%; for `COc1ccc(CN2Cc3cnn(C)c3C(COCC3CC3)C2)cc1` (stereo unspecified): -1.5%.
For the compound `COCC1CN(C(=O)C2=CCCC2)Cc2cnn(CC3CC3)c21` (stereo unspecified), the cytotoxicity at 70.5 h is -2.82%.
The same measure for `Cc1cnc(C(=O)N2CC[C@H]3C[C@@H](c4nc(C)cs4)O[C@@H]3C2)cn1`: 7.61%; for `O=C(Cc1ccccc1)N1CCn2cc(Cn3cncn3)nc2C1`: 9.06%; for `CO[C@H]1CC[C@H]2[C@H]1OCCN2C(=O)C1=CCCC1`: 9.7%.
Next, `Cn1nc(C#N)c2c1CN(C(=O)c1ccco1)CCC2`: 14.2%; `COCC1CC2(CCN(C(=O)c3ccc(F)c(Cl)c3)CC2)CO1` (stereo unspecified): 13%.
Next, `O=C(c1cnccn1)N1CCC2(CCCN(Cc3ccoc3)C2)C1` (stereo unspecified): 11.3%.
As for `O=S(=O)(C1CC1)N1CCC2(CC1)CC(Oc1ccccn1)CO2` (stereo unspecified), the cytotoxicity at 70.5 h came out at 2.03%.
The same measure for `COCC1CC2(CCN(C(=O)c3oc4ccccc4c3C)CC2)CO1` (stereo unspecified): 3.46%.
As to `Cn1nc(C#N)c2c1CN(C(=O)c1ccsc1)CCC2`, the cytotoxicity at 70.5 h came out at 5.67%.
For the compound `Cc1nc(CN2CCO[C@H]3CN(C(=O)c4cccn4C)C[C@H]32)cs1`, the cytotoxicity at 70.5 h was determined as 5.54%.
For `Cc1nc(CN2CCO[C@H]3CN(C(=O)c4ccncc4)C[C@H]32)cs1`, the cytotoxicity at 70.5 h was 6.5%.
`Cc1nn(CCc2nnc(NCC(C)C)s2)c(C)c1Br`: the cytotoxicity at 70.5 h is -16%.
For `Cc1cc(C(F)(F)F)nn1C(C)C(=O)NN1CCOCC1` (stereo unspecified), the cytotoxicity at 70.5 h was -7.56%.
Consider `Cc1nn(CC(=O)N2CCN(Cc3cn(C)nc3C)CC2)cc1Br`, for which the cytotoxicity at 70.5 h is 25.1%.
In the case of `CCn1ncc(CN(C)C(=O)c2ccn(C)n2)c1C`, the cytotoxicity at 70.5 h was -6.74%.
In the case of `Cc1nn(CC(=O)N2CCN(Cc3cnn(C)c3C)CC2)cc1Br`, the cytotoxicity at 70.5 h came out at 29.4%.
The same measure for `Cc1nn(Cc2ccc(C(=O)NCCCN3CCCC3=O)o2)c(C)c1Br`: -7.69%.
Consider `Cc1cc(C(F)(F)F)nn1CC(C)C(=O)Nc1cccnc1` (stereo unspecified), for which the cytotoxicity at 70.5 h is -3.81%.
Take `CCn1nc(C)c(CN(C)S(=O)(=O)c2cnn(C)c2)c1C`: the cytotoxicity at 70.5 h was -5.84%.
Turning to `CS(=O)(=O)N1CCC(C(=O)NCCCn2cc(Cl)cn2)CC1`, the cytotoxicity at 70.5 h is -13.1%.
As for `CCS(=O)(=O)Nc1ccn(Cc2ccc(F)cc2Cl)n1`, the cytotoxicity at 70.5 h is -8.72%.
Take `CCS(=O)(=O)Nc1cnn(Cc2cccc(F)c2)c1`: the cytotoxicity at 70.5 h was -4.79%.
As for `COc1ccc(CN2C[C@H](N3CCCC3=O)[C@@H]3OCCC[C@@H]32)cc1`, the cytotoxicity at 70.5 h is -7%.
The same measure for `Cn1cc(CN2C[C@@H]3CCCO[C@@H]3[C@H](N3CCCC3=O)C2)cn1`: -4.04%.
The same measure for `Cc1cccc(CN2C[C@@H]3OCCN(S(=O)(=O)N(C)C)[C@@H]3C2)c1`: -2.05%; for `CC(C)N1CCc2c(c(COc3cncnc3)nn2CC2CC2)C1`: -3.91%; for `CNC(=O)CN1CCOCC2(C1)CN(C(=O)C(C)C)CCO2` (stereo unspecified): -9.58%.
On to `O=C([C@@H]1CCO[C@@H]2CCN(Cc3cccs3)C[C@H]21)N1CCCCO1`, for which the cytotoxicity at 70.5 h was -18.4%.
The same measure for `COCCN1CC[C@H]2OCC[C@@H](C(=O)N3CCCO3)[C@H]2C1`: 47%; for `COc1ccccc1CN1CC[C@H]2C[C@H](C(=O)N3CCCC3)O[C@H]2C1`: 15.4%.
Next, `Cc1cccc(C(=O)N2CC(C(=O)NCC3CC3)C3(CCOCC3)C2)n1` (stereo unspecified): -2.96%; `COCCNC(=O)[C@@]12CCO[C@@H]1CCN(Cc1scnc1C)C2`: -2.1%; `CCS(=O)(=O)N1C[C@@H]2CN(Cc3cnn(C)c3)CCO[C@@H]2C1`: 2.4%.
Regarding `CCCS(=O)(=O)N1C[C@@H]2CN(Cc3cnn(C)c3)CCO[C@@H]2C1`, the cytotoxicity at 70.5 h is -1.12%.
The same measure for `COCC1CN(C(=O)COc2ccc(C)cc2)Cc2cn(C)nc21` (stereo unspecified): -2.9%.
The same measure for `Cc1occc1C(=O)N1C[C@@H]2[C@@H](C1)OCC(=O)N2Cc1cccnc1`: -2.83%; for `O=C(NCC1OCCc2cn(CC3CCOCC3)nc21)c1ccsc1` (stereo unspecified): 5%; for `O=C(O)[C@]12CCCN(Cc3ccsc3)C[C@H]1CN(c1ncccn1)C2`: 1.99%.
For the compound `CCc1ccc(CN2CCC3(CCCN(C(=O)c4cnccn4)C3)C2)o1` (stereo unspecified), the cytotoxicity at 70.5 h worked out at 2.89%.
The same measure for `Cn1nc(Cn2ccnc2)c2c1CN(c1nccs1)C2`: -5.95%; for `Cn1cc(CN2C[C@H](N3CCOCC3)[C@@H]3OCCC[C@@H]32)cn1`: -4.71%; for `Cc1ccc(CN2CC[C@]3(C[C@H](OCc4ccccn4)CO3)C2)o1`: -18.4%.
Take `CCS(=O)(=O)NC[C@]12COC[C@H]1CN(Cc1cccnc1OC)C2`: the cytotoxicity at 70.5 h was -19.9%.
On to `O=C(Nc1cccnc1)[C@H]1CN(C2CCCC2)C[C@H]2OCC[C@@H]12`, for which the cytotoxicity at 70.5 h is -2.64%.
Regarding `CN1CC(=O)N(c2ccccc2)CC12CCN(Cc1nccn1C)C2` (stereo unspecified), the cytotoxicity at 70.5 h worked out at 4.89%.
As for `CN1CC(=O)N(c2cccc(F)c2)CC12CCN(Cc1cncn1C)C2` (stereo unspecified), the cytotoxicity at 70.5 h is -4.15%.
Turning to `CN1CC(=O)N(c2cccc(F)c2)CC12CCN(Cc1nccs1)C2` (stereo unspecified), the cytotoxicity at 70.5 h is -1.43%.
As for `Cn1ccnc1CN1CCC2(CC1)CN(Cc1cccnc1)C(=O)CO2`, the cytotoxicity at 70.5 h was -5.54%.
On to `Cn1cc(CN2CCO[C@@H]3CN(Cc4ccoc4)C[C@@H]3C2)cn1`, for which the cytotoxicity at 70.5 h is -0.642%.
For the compound `O=C(c1c[nH]cn1)N1CCCn2c(CN3CCCCC3)nnc2C1`, the cytotoxicity at 70.5 h was -1.43%.
The same measure for `O=C(O)[C@]12CCCN(Cc3ccsc3)C[C@H]1CN(c1ccccn1)C2`: 13.5%.
The same measure for `Cc1nc(CN2CC[C@H]3[C@H]2CCN3c2ncccn2)cs1`: -5.71%.
The same measure for `c1ccc(CN2CC[C@H]3[C@H]2CCN3c2ncccn2)nc1`: -5.09%.
